Structures are written as SMILES. Activity calls are given as the source filed them. The calls are words filed in the database; no cut-off is given here.

Data set [1] concerns A549. The data set is described as follows: Antitumor activity against human A549 cells xenografted in BALB/c mouse assessed as tumor growth inhibition at 80 mg/kg, ip administered 3 times weekly for 40 days and measured every 3 days relative to control. It counts as functional. The following applies: time 40 day. Further details: scale not given: the % may be the effect or the level left. A general note: Xenograft models place foreign cells or tissue in a host animal.

Data set [2] deals with A549. The data set is described as follows: Effect on TRHDE mRNA levels in human A549 cells at 5 uM incubated for 48 hrs by RT-qPCR analysis. It counts as functional, cell-based. Background: In qPCR the cycle at which signal appears reflects the starting amount.
The nature of data set [3]: AUC in 12 hr fasted BALB/c mouse at 80 mg/kg, po measured for 0.083 to 24 hrs by UPLC-MS/MS analysis. The format is ADME, organism-based. Further details: time upper 24 hrs, dose 80 mg/kg, time lower 0.083 hrs, route po. The following applies: in vivo.
The test system of data set [4] is ASPC1. The experiment in a line: Antitumor activity against human ASPC1 cells xenografted in BALB/c mouse assessed as tumor growth inhibition at 80 mg/kg, ip administered 3 times weekly for 28 days and measured every 3 days relative to control. The following applies: time 28 day. Set-up: scale not given: the % may be the effect or the level left. It counts as functional.

Data set [5] deals with T1, Histone-lysine N-methyltransferase EZH2 (Homo sapiens, UniProt Q15910). The data set is described as follows: Binding affinity to EZH2 in human A549 cell lysate assessed as increase in thermal stability at 10 uM incubated for 1 hr followed by temperature treatment at 45 to 54.5 degC for 3 mins by thermal shift assay. The format is subcellular. The following applies: time 63.0 min.
T1 sequence (Q15910 whole entry, looked up): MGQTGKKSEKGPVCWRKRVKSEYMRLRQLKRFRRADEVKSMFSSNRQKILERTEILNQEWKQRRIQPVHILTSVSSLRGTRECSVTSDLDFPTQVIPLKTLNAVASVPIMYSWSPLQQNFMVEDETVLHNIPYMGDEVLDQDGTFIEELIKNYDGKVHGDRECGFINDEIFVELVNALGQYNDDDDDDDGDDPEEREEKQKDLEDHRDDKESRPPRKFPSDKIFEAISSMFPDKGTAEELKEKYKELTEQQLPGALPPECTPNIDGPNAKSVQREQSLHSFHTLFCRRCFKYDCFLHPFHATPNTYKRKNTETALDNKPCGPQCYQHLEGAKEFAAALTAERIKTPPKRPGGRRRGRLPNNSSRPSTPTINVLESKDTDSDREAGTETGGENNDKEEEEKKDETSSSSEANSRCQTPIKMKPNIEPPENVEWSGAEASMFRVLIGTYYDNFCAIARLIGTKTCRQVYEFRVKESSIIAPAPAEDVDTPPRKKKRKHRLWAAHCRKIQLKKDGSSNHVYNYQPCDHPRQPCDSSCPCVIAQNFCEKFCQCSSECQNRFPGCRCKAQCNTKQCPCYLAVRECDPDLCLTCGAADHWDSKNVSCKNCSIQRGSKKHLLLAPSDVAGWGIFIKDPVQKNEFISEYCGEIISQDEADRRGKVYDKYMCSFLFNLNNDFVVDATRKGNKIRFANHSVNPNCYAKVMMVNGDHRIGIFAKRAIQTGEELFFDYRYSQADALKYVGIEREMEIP

A short description of data set [6]: Half life in 12 hr fasted BALB/c mouse at 80 mg/kg, ip measured for 0.083 to 24 hrs by UPLC-MS/MS analysis. The following applies: in vivo, time 0.083-24 hrs. The format is ADME, organism-based.
The subject of data set [7] is A549. The experiment in a line: Antitumor activity against human A549 cells xenografted in BALB/c mouse assessed as reduction in tumor weight at 60 mg/kg, ip administered 6 times weekly for 38 days relative to control. The format is functional. Set-up: scale not given: the % may be the effect or the level left. The following applies: time 38 day.
The test system of data set [8] is A549. The experiment in a line: Effect on TNFRSF21 mRNA levels in human A549 cells at 5 uM incubated for 48 hrs by RT-qPCR analysis. The format is functional, cell-based.
Data set [9] in a line: Toxicity in BALB/c mouse xenografted with human A549 cells assessed as body weight loss at 60 mg/kg, ip administered 6 times weekly for 38 days. The format is organism-based. The following applies: in vivo, 912 h, time 38 day.
In data set [10] the test system is HCT-116. The data set is described as follows: Effect on TNFRSF21 mRNA levels in human HCT-116 cells at 5 uM incubated for 48 hrs by RT-qPCR analysis. The format is functional, cell-based.
Data set [11] has as its system A549. The data set is described as follows: Induction of apoptosis in human A549 cells assessed as downregulation of Bcl-2 protein at 1 uM inubated for 72 hrs by Western blot analysis. The format is functional, cell-based. On the technique in general: In western blotting, separated proteins are transferred to a membrane and probed.
A short description of data set [12]: Permeability of compound across apical to basolateral side in human Caco-2 cells measured for 1 to 3 hrs by LC-MS analysis. The format is ADME, cell-based. The following applies: time 1-3 hrs.
Data set [13] concerns ASPC1. The data set is described as follows: Antitumor activity against human ASPC1 cells assessed as inhibition of colony formation measured after 12 to 20 days by crystal violet staining based analysis. The format is functional, cell-based. The following applies: dose <= 0.1 µM, time 12-20 day, DDE = dose-dependent effect.
The test system of data set [14] is ASPC1. The data set is described as follows: Induction of apoptosis in human ASPC-1 cells assessed as upregulation of p21 protein at 1 uM inubated for 72 hrs by Western blot analysis. It counts as functional, cell-based.
For data set [15], the system named is HCT-116. The experiment in a line: Induction of cell cycle arrest in 24 hr starved human HCT-116 cells assessed as accumulation at G0/G1 phase at 1 uM measured after 48 hrs by PI staining based flow cytometric analysis. It counts as functional.
Data set [16] has as its target T1, Histone-lysine N-methyltransferase EZH2. The data set is described as follows: Inhibition of EZH2 in human HCT-116 cells assessed as decrease in H3K27me3 level at 0.05 uM incubated for 72 hrs by Western blot analysis. It counts as cell-based.
For data set [17], the system named is A549. The data set is described as follows: Induction of apoptosis in human A549 cells assessed as downregulation of Bcl-xl protein at 1 uM inubated for 72 hrs by Western blot analysis. It counts as functional, cell-based.
Data set [18] deals with ASPC1. The experiment in a line: Effect on TXINP mRNA levels in human ASPC1 cells at 5 uM incubated for 48 hrs by RT-qPCR analysis. It counts as functional, cell-based.
Data set [19] relates to ASPC1. The data set is described as follows: Antiproliferative activity against human ASPC1 cells assessed as cell growth inhibition incubated for 6 days by MTS assay. The format is functional, cell-based. The following applies: ASPC1, 144 h, read-out: IC50.
Data set [20] has as its system A549. The data set is described as follows: Induction of apoptosis in human A549 cells assessed as upregulation of p21 protein at 1 uM inubated for 72 hrs by Western blot analysis. The format is functional, cell-based.
Data set [21] has as its system A549. The data set is described as follows: Antiproliferative activity against human A549 cells assessed as inhibition of cell proliferation at 1 uM incubated for 4 days by cell counter method. The following applies: time 4.0 day. It counts as functional, cell-based.
Data set [22] in a line: Clearance in 12 hr fasted BALB/c mouse at 80 mg/kg, ip measured for 0.083 to 24 hrs by UPLC-MS/MS analysis. It counts as ADME, organism-based. The following applies: in vivo, time 0.083-24 hrs.
Data set [23] relates to A549. The experiment in a line: Antitumor activity against human A549 cells assessed as inhibition of colony formation measured after 12 to 20 days by crystal violet staining based analysis. The format is functional, cell-based. The following applies: dose <= 0.4 µM, time 12-20 day, DDE = dose-dependent effect.

A word on the AUC: it is the area under the concentration-time curve, a measure of exposure. Broadly, the half-life is the time in which the quantity being followed falls by half. Usually IC50 stands for the point on the concentration scale where inhibition reaches its midpoint. Broadly, the CL/F is clearance divided by bioavailability, as obtained after extravascular dosing. Turning to `CCN(c1cc(-c2ccc(OCCCCCNC(=O)C[C@@H]3N=C(c4ccc(Cl)cc4)c4c(sc(C)c4C)-n4c(C)nnc43)cc2)cc(C(=O)NCc2c(C)cc(C)[nH]c2=O)c1C)C1CCOCC1`, the Activity in the data set on A549 [1] is 62.3%; with ASPC1 [4], 38.6%; in the data set with A549 [7] it was 57.8%; in data set [9], “Non-Toxic”; in the data set on ASPC1 [13], “Dde”; with A549 [23] it was “Dde”. The result (in the data set with A549 [2]; in data set [5]; in the data set with A549 [8]; in the data set on HCT-116 [10]; in the data set with A549 [11]; with ASPC1 [14]) was Active. Moreover, the result in the data set on HCT-116 [15], with A549 [17], in the data set on ASPC1 [18], in the data set on A549 [20] and in the data set on A549 [21] was Active. Further, the area under the curve (AUC) in data set [3] is 13500 ng·h/mL. The half-life in [6] was 3.81 h. Further, the permeability entry in [12] is “Impermeable”. The inhibition result in data set [16] is “Active”. Besides, the IC50 with ASPC1 [19] was 690 nM. This compound also came in with a CL/F in [22] of 4.88 mL/min/kg.

(Values after ChEMBL document CHEMBL5154900, “Design and Synthesis of Dual EZH2/BRD4 Inhibitors to Target Solid Tumors” (J Med Chem, 2022).)
